Measurements from patent publication US20220175798A1, “COMPOSITIONS COMPRISING OXYGENATED CHOLESTEROL SULFATE AND AT LEAST ONE OF POLYALKYLENE GLYCOL, CARBOXYMETHYL CELLULOSE AND POLYOXYLGLYCERIDE” (Durect Corporation, priority 2016, published 2022).

How the values were obtained:
[1] = tested on: non-alcoholic steatohepatitis (NASH); experiment: Accelerated mouse model of NASH (STZ + HFD), Part II; type: in vivo, C57BL/6J mice; details: 50 mg/kg daily oral
Protocol: The subjects for the study were 36 C57BL/6J male mice. Mice were given 200 μg streptozotocin (STZ) at 2 days after birth and fed high fat diet (HFD) starting at four weeks of age until the remainder of the study (13 weeks of age). This intervention early in their lives induces accelerated progression of non-alcoholic steatohepatitis (NASH) and has been thoroughly characterized.
The Vehicle was a solution of 0.5% (w/v) CMC and 0.05% (v/v) Tween-80 in water. Powdered 25HC3 S was constituted into the Vehicle solution to result in drug concentration of 10 mg/mL. The suspensions were homogenized for approximately 5 minutes (with 10 second breaks every 30-40 seconds) and swirled before dosing to maintain homogeneity. The formulated test article was prepared weekly and kept at room temperature.
Mice were divided into treatment groups (N=10/group) and dosed daily by oral gavage with water (control), Vehicle or 50 mg/kg 25HC3 S starting from Week 9 to Week 13 (28 days treatment).

[2] = tested on: bile duct ligation cholestasis; experiment: Bile duct ligated (BDL) rat model of cholestasis; type: in vivo, CD1 rats
Protocol: The subjects for the study were CD1 male rats (8 weeks of age, 200-225 g). Rats underwent BDL surgery, where the extrahepatic biliary tract was tightly ligated twice with sutures, then cut between the two ligations. A sham group (N=5/group) was also included in a subset of the studies described. […] The Vehicle was a solution of 0.5% (w/v) CMC and 0.05% (v/v) Tween-80 in water. Powdered 25HC3 S was constituted into the Vehicle solution to result in drug concentrations of 0.833 to 5 mg/mL. The suspensions were homogenized for approximately 5 minutes being combined, with 10 second breaks every 30-40 seconds and swirled before dosing to maintain homogeneity. The formulated test article was prepared weekly and kept at room temperature. […] were divided into treatment groups (N=8-10/group) and dosed daily or every 3 days for 9 days by oral gavage. 5, 10, 30 or 60 mg/kg 25HC3S or Vehicle was given starting one day (Day 1) after BDL surgery. On Day 10, serum was collected after an overnight fast and measured for serum biochemistry.

[3] = Single SC injection PK study in Beagle dogs; type: in vivo; details: single SC dose 25 mg/kg
Protocol: The subjects for the study were 5 male Beagle dogs (4-7 years of age; 8-11 kg). […] All animals were in healthy condition and admitted to the study.
(§1) The Vehicle was a solution of 3% (w/v) polyethylene glycol 3350, 0.3% (w/v) polysorbate 80, 0.7% (v/v) sodium chloride, 0.15% (w/v) L-methionine, 10 mM sodium phosphate buffer at pH 7.4 in water. 25HC3 S was mixed into the Vehicle solution to result in a drug concentration of 25 mg/mL. […] The formulated test article was used within 24 hours of constitution.
Each dog received a single subcutaneous injection. The dose level of 25 mg/kg was administered in a dose volume of 1 mL/kg. Whole blood samples were collected via the jugular vein at pre-dose, 0.5, 1, 2, 4, 8, 12, 24, and 32 hours (h) post dose. Blood samples were placed into tubes containing K2EDTA. The blood was gently mixed to assure distribution of the anti-coagulant and the resulting plasma samples underwent analyses to quantify 25HC3S levels. […] Assessments included, but were not limited to, evidence of pain on injection, assessment of activity, posture, respiration, emesis, seizure, hydration status, injection site assessment.

[4] = Stability and impurity profile of 25HC3S suspension at room temperature by HPLC; type: physicochemical
Protocol: The HPLC technique involved reverse phase HPLC for measuring the concentration of 25HC3 S in the solubility samples.
Weigh 80 mg of 25HC3S (Lot #B, Passed through 20 mesh screen and Jet-milled, 3rd pass) into a 10 mL vial. Add to the vial, 8 mL of Vehicle PEG 3350 (with 0.15% L-Methionine and 0.9% NaCl). […] A total of 9 samples were dispensed using 1 mL BD syringes attached to 20G1″ or 25G⅝″ Terumo UTW needles for homogeneity analysis by HPLC (Study #14) and stability study (Study #17).

[5] = Single SC or IM injection PK study in rats; type: in vivo, Sprague Dawley rats
Protocol: The subjects for the study were 15 male Sprague Dawley rats (8-11 weeks of age; 280-327 g at time of dosing). […] All animals were in healthy condition and admitted to the study.
as §1, with “0.3% (v/v)” for “0.3% (w/v)”, “0.7% (w/v)” for “0.7% (v/v)”, “water. 25HC3S” for “water. 25HC3 S”, “in” for “in a”, “drug concentrations” for “drug concentration”, “of 25, 5 and 10” for “of 25”
Each rat received a single IM or SC injection (2 doses) (N=5/group). The dose level for the IM injection was 25 mg/kg was administered in a dose volume of 1 mL/kg. There were two dose groups for the SC injection route. The dose levels for the SC injections were 25 and 50 mg/kg with a dose volume of […] for both groups (drug concentrations were 5 and 10 mg/mL, respectively). Whole blood samples were collected via the jugular vein or the submandibular vein at pre-dose, 0.5, 1, 2, 4, 8, 12, 24, and 32 hours (h) post dose from each rat; however, the last blood collection may have been collected by terminal cardiac puncture with the animals deeply anesthetized by isoflurane. Blood samples were placed into tubes containing K2EDTA. The blood was gently mixed to assure distribution of the anti-coagulant and the resulting plasma samples underwent analyses to quantify 25HC3 S levels. […] Assessments included, but were not limited to, assessment of activity, posture, respiration, emesis, seizure, hydration status, injection site assessment and overall body condition.

[6] = Week 9 to 13, vs Vehicle, p<0.05
[7] = daily oral 10 or 30 mg/kg (follow-up study)

In the case of C[C@H](CCCC(C)(C)O)[C@H]1CC[C@H]2[C@@H]3CC=C4C[C@@H](OS(=O)(=O)[O-])CC[C@]4(C)[C@H]3CC[C@]12C.[Na+] [Formulation 25HC3S, 5-cholesten-3, 25-diol, 3-sulfate], the “NAS (NAFLD activity score)” value ([1]; Week 9 to 13, vs Vehicle) is reported as “trend of reduction”, the hepatocyte ballooning [1, 6] is reported as “significant reduction” and the “percent area of fibrosis (Sirius red-positive area)” value [1, 6] is reported as “significantly decreased”. The extent of fibrosis ([1]; compared to baseline Week 9 mice) was “trended lower”, the “body weight and other serum chemistry measures” value ([2]; daily oral 5 mg/kg) was “little or no differences” and the “Body temperature on Day 9” value ([2]; daily oral 5 mg/kg, vs Vehicle) was “significantly improved”. The spleen-to-body weight ratio ([2]; daily oral 5 mg/kg, vs Vehicle) was “significantly improved”, the “body weight gain after surgery” value ([2]; daily oral 30 mg/kg (pilot study)) was “significantly improved” and the “body weight gain after surgery” value ([2]; daily oral 60 mg/kg (pilot study)) was “modest increases”. For the same compound, the liver histological analyses [2, 7] was “no differences”, the serum liver enzymes [2, 7] was “trends of decrease” and the “Serum total, direct and indirect bilirubin levels” value ([2]; daily oral 10 or 30 mg/kg, vs Vehicle (follow-up study)) was “significantly reduced”. For the same compound, the “serum biochemistry analytes, including serum bilirubin” value ([2]; daily oral 30 or 60 mg/kg (pilot study)) was “No significant differences”, the “body weight, organ-to-bodyweight ratios or serum clinical chemistry” value ([2]; oral every three days (Days 1, 4, 7), 10 or 30 mg/kg) was “no significant differences” and the clinical signs [3] was “no observable clinical signs”. The “mean time to maximum plasma drug concentration” value (“mean time” for short) ([3]; PEG 3350 suspension 25 mg/mL) was 23.2 h, the “mean concentration at 32 h” value ([3]; plasma) was 157.6 ng/mL and the odor after storage ([4]; 25HC3S in Vehicle PEG 3350 with L-Methionine, room temperature for a few months) was “produced a sulfur-like odor”. For the same compound, the “% peak area for 25HC3S” value ([4]; after 2 weeks at RT, 25 mg/mL in Vehicle PEG 3350 (with 0.15% L-Methionine), 25HC3S plus two impurities as 100%, n=2) was “approximately 99.17%”, the drug potency ([4]; after 2 weeks at RT, time 0 concentration as 100%, n=2, 25 mg/mL in Vehicle PEG 3350 (with 0.15% L-Methionine)) was 103.7% and the “25HC3S by peak area normalization” value ([4]; final suspension formulation 25 mg/mL, room temperature up to 14 days) was 99.172%. For the same compound, the “stable at ambient room temperature” value ([4]; suspension 25 mg/mL in Vehicle PEG 3350 (with 0.15% L-Methionine)) was “at least 2 weeks”, the mean maximum concentration ([5]; IM 25 mg/kg) was 101.9 (±17.1) ng/mL and the “mean time” value ([5]; IM 25 mg/kg) was 10.4 (±2.2) hr. The mean maximum concentration ([5]; SC 25 mg/kg) was 127.1 (±93.8) ng/mL, the “mean time” value ([5]; SC 25 mg/kg) was 7.6 (±4.6) hrs and the “mean concentration at 32 h” value ([5]; SC 50 mg/kg) was 34.2 (±13.8) ng/mL. For the same compound, the mean maximum concentration ([5]; SC 50 mg/kg) was 76 (±15.9) ng/mL, the “mean time” value ([5]; SC 50 mg/kg) was 7.2 (±1.8) hrs and the clinical signs ([5]; single IM or SC injection) was “no observable clinical signs”.
